Results taken from patent US10456446B2, “Use of human small leucine zipper protein in osteogenesis procedure” (Korea University Research and Business Foundation, priority 2013, dated 2019).
Ends that are not written are not given here. d = 2'-deoxy (DNA)

T1: PPARγ2 (Homo sapiens, UniProt P37231)
T1 construct: expressed in transfected cells; host or cells: 293T
T1 sequence (P37231 1-505): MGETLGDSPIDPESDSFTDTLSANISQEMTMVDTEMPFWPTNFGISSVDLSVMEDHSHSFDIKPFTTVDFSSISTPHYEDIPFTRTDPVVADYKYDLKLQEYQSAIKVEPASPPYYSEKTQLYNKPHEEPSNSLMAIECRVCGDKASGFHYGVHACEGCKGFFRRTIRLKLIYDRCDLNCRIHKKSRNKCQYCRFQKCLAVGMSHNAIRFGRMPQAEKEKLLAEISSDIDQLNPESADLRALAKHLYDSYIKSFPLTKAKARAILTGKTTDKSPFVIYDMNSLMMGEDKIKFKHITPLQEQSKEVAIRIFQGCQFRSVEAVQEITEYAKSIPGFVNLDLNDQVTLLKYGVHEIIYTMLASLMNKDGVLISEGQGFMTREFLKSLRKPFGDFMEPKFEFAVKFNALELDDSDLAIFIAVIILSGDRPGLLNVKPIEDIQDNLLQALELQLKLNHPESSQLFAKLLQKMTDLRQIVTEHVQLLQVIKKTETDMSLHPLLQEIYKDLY


Columns and labels:
PPARγ2 [1] = target: T1, PPARγ2; assay: PPARγ2 transcriptional activity, FABP4-Luc luciferase reporter in transfected 293T cells; type: cell-based; details: for sLZIP-mediated PPARγ2 transcriptional activity: 100 nM si-RNA, with or without 10 nM RZD
Protocol: C3H10T1/2 and 293T cells were plated in a 12-well culture dish at a density of 2×10^5 cells/well and incubated for 24 hours. Then, according to instructions of the manufacturer, the cells were transfected with a 0.2 μg of reporter genes and 0.1 to 0.5 μg of a laboratory plasmid using Lipofectamine 2000 or Genefectine. After 24 hours, the cells were cultured in a serum-free DMEM with or without 10 nM of rosiglitazone. siRNAs were prepared using sLZIP and HDAC target sequences (Table 1). For an RNA interference experiment, according to instructions of the manufacturer, the cells were transfected with scrambled control group RNA and appropriate siRNAs using Lipofectamine 2000. Human MSC and C3H10T/1/2 cells were infected with an adenovirus vector containing cDNA of human sLZIP or an empty vector. The infected medium was exchanged with a fresh medium after two hours.
Appropriately transfected cells were washed with cold PBS twice, and a reporter lysis buffer (Promega) was used and lysed in a culture dish. Luciferase analysis was performed using a luciferase analysis system (Promega Corporation, Madison, Wis.). A luciferase activity was recorded in Luminometer 20/20^n (Turner BioSystems, Sunnyvale, Calif.) according to instructions of the manufacturer. The luciferase activity was normalized to a β-galactosidase activity. For β-galactosidase analysis, CMV-β-galactosidase was transfected with luciferase reporter genes. All pieces of data were represented as mean±standard deviation of the results from at least three independent experiments.
In order to examine an effect of sLZIP on the transcriptional activity of PPARγ2, 293T cells were temporarily transfected with PPARγ2 (0.5 μg), β-galactosidase (0.1 μg), FABP4-Luc reporter genes (0.2 μg) and sLZIP at different contents (0.1 to 0.5 μg). After the transfection, the cells were stimulated with or without 10 nM of rosiglitazone (RZD) (FIG. 1A), pioglitazone (PZD) (FIG. 1B), and troglitazone (TZD) (FIG. 1C). A relative luciferase activity was analyzed with or without cell ligand treatment 24 hours after transfection. Also, the 293T cells were transiently transfected with si-sLZIP at different contents (50 and 100 nM), and the cells were treated or not treated with RZD (FIG. 1D). FABP4-Luc stable C3H10T1/2 cells were infected with a sLZIP-expressing adenovirus, and then differentiated into adipocytes for 4 days (FIG. 1E). A luciferase activity was normalized to a β-galactosidase activity and represented as a relative activity (fold change). All experiments were repeated three times, and bars in the graph represent mean±standard deviation. *, P<0.05; **, P<0.01
For this purpose, 293T cells were transiently transfected with PPARγ2 (0.5 μg), β-galactosidase (0.1 μg), FABP4-Luc reporter genes (0.2 μg) and sLZIP (0.1 μg). After the transfection, the cells were stimulated with or without 10 nM of RZD and 10 nM of TSA (FIG. 4A). A promoter activity was measured according to luciferase analysis. In the 293T cells, FABP4-Luc reporter genes, sLZIP, PPAR, β-galactosidase, and 100 nM of si-RNAs and HDAC1, 2, 3 and 8 for a control group were expressed. After the transfection, the cells were stimulated with or without 10 nM of RZD, and a promoter activity was measured (FIG. 4B). 293T cells were temporarily transfected with FABP4-Luc reporter genes, PPARγ2, β-galactosidase, HDAC3 (0.5 μg) and sLZIP (0.1 μg). After the transfection, the cells were stimulated with or without 10 nM of RZD, and luciferase analysis was performed (FIG. 4C). A luciferase activity was normalized to a β-galactosidase activity and represented as a relative intensity (fold change). All experiments were repeated three times, and bars in the graph represent mean±standard deviation. GFP-sLZIP expression constructs were expressed in C3H10T1/2 cells, rabbit anti-HDAC3 antibodies and Texas Red-labeled anti-rabbit antibodies were used and analysis was performed under a fluorescence microscope. The nucleus was stained with DAPI (FIG. 4D). […]

PPARγ2 [2] = assay: GST / His pull-down and immunoprecipitation of sLZIP with PPARγ2; type: binding; details: GST pull-down, transfected 293T cells
Protocol: 293T cells were obtained and washed with cold PBS. The cells were re-suspended in an IP lysis buffer [25 mM of Tris-HCl (pH 7.4), 150 mM of NaCl, 1 mM of EDTA, 1% NP-40 and 5% glycerol, and a protease inhibitor]. A suspension was centrifuged at 16,000×g for 20 minutes at 4° C. Supernatants were collected and incubated with 0.5 μg of appropriate antibodies and 25 μl of protein A/G-agarose or a GST Sepharose 4B bead for 24 hours at 4° C. A protein complex was centrifuged at 1,000×g with a cold IP lysis buffer for 1 minute and washed five times. The final pellet was re-suspended in 50 μl of an SDS-sample buffer containing 5% β-mercaptoethanol and heated for 10 minutes at 100° C. A protein sample was isolated in SDS-PAGE (8 to 10%) and transferred to nitrocellulose membranes. Co-precipitated proteins were detected according to western blotting using specific antibodies.
In order to examine whether the transcriptional activity of PPARγ2 is regulated by interaction with sLZIP, interaction between sLZIP and PPARγ2 was examined. For this purpose, 293T cells were transfected with GST-sLZIP and Myc-PPARγ2. Cell lysates were obtained and GST pull-down analysis was performed using a glutathione 4B bead. A protein complex was analyzed in SDS-PAGE and then immunoblotted with specific antibodies (FIG. 2A). The 293T cells were transfected with GST-PPARγ2 and Flag-sLZIP, and identified according to GST-pull-down analysis (FIG. 2B). PPARγ2 was translated in vitro by a TNT translation system (Promega). His-sLZIP proteins were expressed in BL21 cells using an IPTG-inducement system. Purified His-sLZIP proteins were subjected to His pull-down analysis. Proteins bound to the bead were analyzed in SDS-PAGE, and then immunoblotted with anti-PPARγ2 and anti-His antibodies (FIG. 2C). GFP-PPARγ2 and Flag-sLZIP constructs were expressed in C3H10T1/2 cells, and analyzed using mouse anti-Flag and Texas Red-labeled anti-mouse antibodies under a fluorescence microscope. The nucleus was stained with DAPI (FIG. 2D).
Activation of many nuclear receptors depends on a supplement of coactivators. Therefore, a domain of sLZIP necessary for binding with PPARγ2 was examined. For this purpose, 293T cells were transfected with GST-full length sLZIP (1-354), N-terminal deletion mutant sLZIP (1-228), C-terminal deletion mutant sLZIP (229-354), CC-terminal deletion mutant sLZIP (297-354) and PPARγ2. Cell lysates were obtained and GST pull-down analysis was performed using a glutathione 4B bead. A protein complex was analyzed in SDS-PAGE, and then immunoblotted with specific antibodies (FIG. 3A). 293T cells were transfected with Flag-full length PPARγ2, full length PPARγ2, N-terminal deletion mutant PPARγ2 (1-310), C-terminal deletion mutants PPARγ2 (139-505) and GST-sLZIP. Cell lysates were obtained and GST pull-down analysis was performed. A protein complex was analyzed in SDS-PAGE, and then immunoblotted with anti-GST and anti-Flag antibodies (FIG. 3B).
For this purpose, 293T cells were transfected with GST-PPARγ2 and Flag-sLZIP and were treated or not treated with 10 nM of RZD for 24 hours. Cell lysates were obtained and GST pull-down analysis (FIG. 5A) and immunoprecipitation (FIG. 5B) were performed using a glutathione 4B bead. A protein complex was analyzed in SDS-PAGE, and immunoblotted with anti-GST and anti-Flag antibodies. GST-PARγ2 and Flag-sLZIP were expressed in the 293T cells, and the cells were treated with 10 nM of RZD according to time of day. The cell lysates were GST pull-down analyzed (FIG. 5C). 293T cells were transfected with GST-HDAC3 and Flag-sLZIP, and treated or not treated with 10 nM of RZD for 24 hours. The cell lysates were GST pull-down analyzed (FIG. 5D). Flag-sLZIP was expressed in the 293T cells, and the cells were treated with 10 nM of RZD for 24 hours. Immunoprecipitation analysis of the cell lysates was performed using anti-NCoR1 antibodies. […]

Molecule | sLZIP-mediated PPARγ2 transcriptional activity (PPARγ2 [1]) | other results
siRNA for HDAC2: siRNA against HDAC2, SEQ ID NO: 9 and 10 (chain 1 GGUCAAUAAGACCAGAUAA; chain 2 UUAUCUGGUCUUAUUGACCG; 3' dTdT, sugars by position and backbone not given here) [reference compound] | not involved in sLZIP-mediated PPARγ2 regulation | –
si-sLZIP: siRNA for sLZIP, SEQ ID NO: 5 and 6 (+dTdT) (chain 1 GGACCCAGAUGACUCCACAGCAUAU; chain 2 AUAUGCUGUGGAGUCAUCUGGGUCC; 3' dTdT, sugars by position and backbone not given here) [reference compound] | – | transcriptional activity of PPARγ2 (relative luciferase activity) (PPARγ2 [1]; si-sLZIP 50 and 100 nM, treated or not treated with RZD): increased the transcriptional activity of PPARγ2
HDAC3: siRNA used to knock down HDAC3, SEQ ID NO: 11 and 12 (chain 1 GCCGGUUAUCAACCAGGUA; chain 2 UACCUGGUUGAUAACCGGC; 3' dTdT, sugars by position and backbone not given here) [reference compound] | significantly increased | –
CC domains of sLZIP: CC-terminal deletion mutant of sLZIP (297-354), contains proline-rich region (YMPQAPSAEPPLEWPFPDLFSEPLCRGPILPLQANLTRKGGWLPTGSPSVILQDRYSG; also: fused to dimerising Fc or GST) | – | interaction with PPARγ2 (PPARγ2 [2]): interacted with PPARγ2
siRNA for HDAC1: siRNA against HDAC1, SEQ ID NO: 7 and 8 (chain 1 CGACUGUUUGAGAACCUUA; chain 2 UAAGGUUCUCAAACAGUCGCU; 3' dTdT, sugars by position and backbone not given here) [reference compound] | not involved in sLZIP-mediated PPARγ2 regulation | –
siRNA for HDAC8: siRNA against HDAC8, SEQ ID NO: 13 and 14 (chain 1 CAUUCAGGAUGGCAUACAA; chain 2 UUGUAUGCCAUCCUGAAUGGG; 3' dTdT, sugars by position and backbone not given here) [reference compound] | not involved in sLZIP-mediated PPARγ2 regulation | –
C domains of sLZIP: C-terminal deletion mutant of sLZIP (229-354) (protein, left off: a dimerising Fc or GST) MYSSDTRGSLPAEHGVLSRQLRALPSEDPYQLELPALQSEVPKDSTHQWLDGSDCVLQAPGNTSCLLHYMPQAPSAEPPLEWPFPDLFSEPLCRGPILPLQANLTRKGGWLPTGSPSVILQDRYSG | – | interaction with PPARγ2 (PPARγ2 [2]): interacted with PPARγ2
